Test [1] relates to Arabidopsis thaliana plants (gene expression). Description: Induction of salicylic acid and pathogen response pathways, Affymetrix ATH1 gene expression analysis. The test is classed as in vivo. The settings on record: 500 g/ha spray; for total number of differentially expressed genes: p≦0.05, vs control. The protocol:
Arabidopsis thaliana plants were grown on soil in climate controlled growth chambers for 33 days under defined conditions. For treatment Prothioconazole was formulated to result in a final concentration corresponding to 500 g/ha in a spray application. The plants were sprayed in biological replicates. A control group of similar grown plants was equally treated with a blank formulation. Aerial tissues of the treated plants were harvested 3 h and 6 h after treatment, frozen in liquid nitrogen and stored at −80° C. for further processing. Each biological replicate (3 per treatment and time point) consisted of a pool of 10 plants.
Total RNA was prepared from each sample using the RNeasy Midi kit from Qiagen #75142 according to the manufacturer's recommendations. The RNA was then transcribed into cDNA using Superscript II Reverse Transcriptase (Invitrogen). The biotin-labeled cRNA probes for hybridization were generated from the cDNA using the BioArray HighYield® RNA transcript labeling kit (T7) (Enzo Life Sceinces # ENZ42655-40) according the manufacturer's recommendations. The labelled cRNA probes were subsequently hybridized onto Affymetrix GeneChip Arabidopsis ATH1 Genome Arrays (cat.#900385).
The samples were analyzed using the Affymetrix GeneChip System. The resulting data were processed and analyzed using Genedata Refiner Array, Genedata Analyst, RobiNA (Lohse et al. 2012, Nucleic Acids Res) and MapMan (Usadel et al. 2009, Plant Cell Environment) software packages.

In test [2] the test system is PR1 (pathogenesis-related protein 1) gene (AT2G14610) promoter. The experiment in a line: Induction of defense gene expression, GFP reporter behind the PR1 promoter. The test is classed as in vivo, Arabidopsis thaliana. The note with it: 300 ppm, 3 days after spraying, mock (background) set as 1.00. The protocol:
Arabidopsis thaliana reporter plants containing the coding sequence of a green fluorescent protein (GFP) linked to the salicylate responsive promoter sequence of the PR1 (pathogenesis-related protein 1) gene (AT2G14610) were grown for five days and then sprayed with compounds. On the 3rd day after spraying, plant fluorescence was assessed with a MacroFluo instrument from Leica Microsystems (Wetzlar, Germany). Fluorescences were quantified with the MetaMorph Microscopy Automation & Image Analysis Software (Molecular Devices, Sunnyvale, Calif., United States).

[3] abbreviates: 3 h after treatment, >2-fold change, p≦0.05.
Where [4] appears, read: 6 h after treatment, >2-fold change, p≦0.05.

For `OC(Cc1ccccc1Cl)(Cn1[nH]cnc1=S)C1(Cl)CC1` (centres unmarked) [Prothioconazole, 2-[2-(1-chlorocyclopropyl)-3-(2-chlorophenyl)-2-hydroxypropyl]-1,2-dihydro-3H-1,2,4-triazole-3-thione], in test [1] (setting [3]), the “number of down-regulated genes” value worked out at 142 and the “number of up-regulated genes” value worked out at 238. In addition, the “total number of differentially expressed genes” value in test [1] (3 h after treatment, >2-fold change) is 380. Moreover, in test [1] (6 h after treatment), the “induction of At1g57630 [Toll-Interleukin-Resistance domain-containing protein]” value was found to be 3.4 fold, the “induction of At1g66090 [TIR-NBS class of disease resistance protein]” value worked out at 2.4 fold, the “induction of At3g59930 [Defensin-like protein 206]” value came out at 3 fold and the “induction of At4g36010 [pathogenesis-related thaumatin family protein]” value is 3.8 fold. Besides, in test [1] (setting [4]), the “number of downregulated genes” value was determined as 148 and the “number of up-regulated genes” value turned out to be 299. In addition, in test [1] (6 h after treatment, >2-fold change), the “total number of differentially expressed genes” value stood at 447. In addition, in test [1] (after 3 h), the “induction of At1g05680 (UDP-glucose: salicylic acid glucosyltransferase)” value came out at 3 fold and the “induction of At2g43820 (UDP-glucose: salicylic acid glucosyltransferase)” value is 2.5 fold. Besides, in test [1] (after 6 h), the “induction of At1g05680 (UDP-glucose: salicylic acid glucosyltransferase)” value is 5.5 fold and the “induction of At2g43820 (UDP-glucose: salicylic acid glucosyltransferase)” value was 2.5 fold. Also, the “Relative fluorescence of GFP” value in test [2] amounted to 2.04.
For the compound `CC(C)(C)C(O)(CCc1ccc(Cl)cc1)Cn1cncn1` (centres unmarked) [Tebuconazole], the “Relative fluorescence of GFP” value in test [2] is 0.73.
The same measure, in the same setting: the figure for `O=C(O)c1ccccc1O` [Salicylic acid, salicylic acid] is 1.96.

Source of the values: patent US9848602B2, “Use of prothioconazole to induce host defence responses” (priority 2013, dated 2017).
